In ChEMBL document CHEMBL1135050, “Design and synthesis of 4,5-disubstituted-thiophene-2-amidines as potent urokinase inhibitors” (Bioorg Med Chem Lett, 2002) one finds solubility and Ki data, which are given here for 8 compounds.

Structures are written as SMILES. In brackets after ≈: the same amount, converted by molar mass.

System in one data set: not listed separately
Nature of the data set: Compound was evaluated for its solubility in water. Type of data set: ADME.
For orientation: solubility means how much of the substance goes into solution per volume. For `CSc1sc(C(=N)N)cc1-c1nc(-c2ccccc2)cs1`, the concentration in solution (solubility) came to 300 µM (≈ 99.4 µg/mL). Take `Cc1sc(C(=N)N)cc1-c1nc(-c2ccccc2)cs1`: the solubility stood at 9000 µM (≈ 2690 µg/mL). Compared with the last compound, the solubility is about 30-fold higher.

As to `CCc1sc(C(=N)N)cc1-c1nc(-c2ccccc2)cs1`, the concentration in solution (solubility) was 2700 µM (≈ 846 µg/mL).

In the next data set the target is Urokinase-type plasminogen activator (Homo sapiens, UniProt P00749). As to the kind of experiment: Inhibition of Human kidney cell urokinase. The class given is cell-based.
As usually defined, the Ki is a dissociation constant, usually derived from enzyme kinetics or from competition with a known ligand. Higher therefore signals lower affinity. `COc1ccc(-c2csc(-c3cc(C(=N)N)sc3SC)n2)cc1OC` gave an inhibitory constant (Ki) of 58 nM. Regarding `N=C(N)c1cc(-c2nc(-c3ccc(Cl)cc3)cs2)c(SCc2ccccc2)s1`, affinity was put at a Ki of 2500 nM. Against the preceding compound, the Ki is about 43-fold higher. The same measure, in the same setting: for `CSc1sc(C(=N)N)cc1-c1nc(-c2ccc(Cl)cc2)cs1` the value was 102 nM; for `COc1sc(C(=N)N)cc1-c1nc(-c2ccccc2)cs1`, 531 nM. On the same count and under the same terms, as for `CCc1sc(C(=N)N)cc1-c1nc(-c2ccccc2)cs1`, the figure is 138 nM; as for `CS(=O)(=O)c1sc(C(=N)N)cc1-c1nc(-c2ccc(Cl)cc2)cs1`, 2500 nM.
